Assays:
FLT3 ITD, D835V = target: T1, FLT3 ITD, D835V (Homo sapiens, UniProt P36888, D835V, form not given); experiment: DiscoverX KINOMEscan competition binding assay, FLT3 ITD, D835V; details: 11-point 3-fold dilution
T1 construct: fused on or other part: DNA tag for qPCR detection (kinase-tagged T7 phage, or made in HEK-293 cells and then tagged with DNA)
T1 sequence (P36888 1-993 D835V): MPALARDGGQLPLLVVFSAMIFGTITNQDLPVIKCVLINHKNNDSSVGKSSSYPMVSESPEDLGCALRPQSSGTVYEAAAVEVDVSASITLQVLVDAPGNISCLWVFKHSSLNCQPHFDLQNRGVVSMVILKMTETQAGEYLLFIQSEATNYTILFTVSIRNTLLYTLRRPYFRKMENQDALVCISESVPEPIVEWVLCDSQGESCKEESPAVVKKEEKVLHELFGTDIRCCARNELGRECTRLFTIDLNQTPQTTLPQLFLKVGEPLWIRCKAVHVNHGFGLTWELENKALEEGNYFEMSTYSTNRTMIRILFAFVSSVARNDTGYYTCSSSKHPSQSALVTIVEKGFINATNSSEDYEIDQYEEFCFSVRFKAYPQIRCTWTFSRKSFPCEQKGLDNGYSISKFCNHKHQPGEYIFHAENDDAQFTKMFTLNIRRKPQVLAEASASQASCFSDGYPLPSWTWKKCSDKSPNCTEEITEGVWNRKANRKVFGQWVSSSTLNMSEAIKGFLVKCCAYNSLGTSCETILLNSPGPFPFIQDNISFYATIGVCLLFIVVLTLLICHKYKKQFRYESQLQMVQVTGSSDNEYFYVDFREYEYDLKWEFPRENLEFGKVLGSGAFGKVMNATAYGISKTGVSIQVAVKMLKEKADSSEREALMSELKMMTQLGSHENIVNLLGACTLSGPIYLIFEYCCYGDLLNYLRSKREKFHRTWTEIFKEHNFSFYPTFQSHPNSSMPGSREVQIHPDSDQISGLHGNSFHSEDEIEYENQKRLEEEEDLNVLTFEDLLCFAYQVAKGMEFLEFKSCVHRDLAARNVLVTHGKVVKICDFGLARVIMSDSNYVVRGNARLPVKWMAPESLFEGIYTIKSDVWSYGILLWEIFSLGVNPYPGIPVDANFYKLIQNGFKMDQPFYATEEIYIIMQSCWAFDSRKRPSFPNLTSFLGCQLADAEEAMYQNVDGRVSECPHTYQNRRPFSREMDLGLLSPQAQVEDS
Excerpt: (§1) […]. […] As a result, the data report thermodynamic interaction affinities (Kd values), rather than IC50 values that are dependent on ATP concentrations. The assay uses a DNA-tagged version of the protein kinase, and an immobilized ligand bound to a solid support. Compounds that directly or indirectly prevent kinase binding to the immobilized ligand reduce the amount of kinase captured on the solid support, which is detected using an ultra-sensitive qPCR method. Affinity constants reported from the assay have been reported to be independent of the immobilized ligand used that is coupled to the solid support (See supplemental information in Fabian, M. A. et. al., (2005) Nat. Biotechnol. 23, 329-336; Wodicka, L. M. et. al., (2010) Chem. Biol. 17, 1241-1249.)
(§2) Kinase-tagged T7 phage strains were prepared in an E. coli host derived from the BL21 strain. E. coli were grown to log-phase and infected with T7 phage and incubated with shaking at 32° C. until lysis. The lysates were centrifuged and filtered to remove cell debris. The remaining kinases were produced in HEK-293 cells and subsequently tagged with DNA for qPCR detection. Streptavidin-coated magnetic beads were treated with biotinylated small molecule ligands for 30 minutes at room temperature to generate affinity resins for kinase assays. The liganded beads were blocked with excess biotin and washed with blocking buffer (SeaBlock (Pierce), 1% BSA, 0.05% Tween 20, 1 mM DTT) to remove unbound ligand and to reduce non-specific binding. […] Test compounds were prepared as 111× stocks in 100% DMSO. Kds were determined using an 11-point 3-fold compound dilution series with three DMSO control points. All compounds for Kd measurements are distributed by acoustic transfer (non-contact dispensing) in 100% DMSO. The compounds were then diluted directly into the assays such that the final concentration of DMSO was 0.9%. All reactions were performed in polypropylene 384-well plates. Each was a final volume of 0.02 mL. […] The kinase concentration in the eluates was measured by qPCR.
(§3) Binding constants (Kds) were calculated with a standard dose-response curve using the Hill equation. The Hill Slope was set to −1. Curves were fitted using a non-linear least square fit with the Levenberg-Marquardt algorithm.

FLT3 = target: T2, FLT3 (Homo sapiens, UniProt P36888); experiment: DiscoverX KINOMEscan competition binding assay, FLT3; design: purchased Reaction Biology (RBC HotSpot); details: 11-point 3-fold dilution
T2 sequence (P36888 27-993): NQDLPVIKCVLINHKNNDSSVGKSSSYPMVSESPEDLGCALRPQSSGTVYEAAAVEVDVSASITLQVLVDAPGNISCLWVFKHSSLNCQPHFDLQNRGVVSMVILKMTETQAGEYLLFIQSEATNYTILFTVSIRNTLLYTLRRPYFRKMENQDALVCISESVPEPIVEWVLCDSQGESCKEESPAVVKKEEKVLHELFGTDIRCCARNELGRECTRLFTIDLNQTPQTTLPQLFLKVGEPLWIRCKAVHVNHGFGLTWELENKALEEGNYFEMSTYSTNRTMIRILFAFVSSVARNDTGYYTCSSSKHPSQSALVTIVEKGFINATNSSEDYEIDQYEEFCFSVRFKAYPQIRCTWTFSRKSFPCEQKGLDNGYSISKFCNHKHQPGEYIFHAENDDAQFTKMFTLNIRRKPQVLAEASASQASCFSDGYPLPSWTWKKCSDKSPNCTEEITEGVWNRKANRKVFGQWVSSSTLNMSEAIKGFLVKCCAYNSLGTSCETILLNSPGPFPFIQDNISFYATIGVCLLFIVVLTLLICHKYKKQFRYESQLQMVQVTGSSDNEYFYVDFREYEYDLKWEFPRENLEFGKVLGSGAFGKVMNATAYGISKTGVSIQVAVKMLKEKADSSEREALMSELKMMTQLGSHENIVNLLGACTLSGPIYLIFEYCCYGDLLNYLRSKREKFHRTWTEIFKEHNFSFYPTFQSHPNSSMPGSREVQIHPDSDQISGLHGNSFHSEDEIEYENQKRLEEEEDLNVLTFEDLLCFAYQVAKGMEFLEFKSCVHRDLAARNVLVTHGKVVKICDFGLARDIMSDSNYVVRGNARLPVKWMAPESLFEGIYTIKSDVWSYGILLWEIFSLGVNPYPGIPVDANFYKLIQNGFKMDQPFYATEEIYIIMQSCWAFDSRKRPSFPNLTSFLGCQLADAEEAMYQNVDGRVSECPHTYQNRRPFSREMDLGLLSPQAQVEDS
Excerpt: as §1, §2, §3

With `COc1cc2ncc(-c3nc(N[C@H]4CNCC[C@@H]4F)ncc3F)n2nc1C1CC1` [Compound 1a, 4-(6-cyclopropyl-7-methoxyimidazo[1,2-b]pyridazin-3-yl)-5-fluoro-N-((3S,4S)-4-fluoropiperidin-3-yl)pyrimidin-2-amine] as the compound, how does the Kd (FLT3 ITD, D835V) read?
Its Kd is less than 0.17 nM.

And the Kd (FLT3)?
Its Kd is less than 0.17 nM.

With `FC(F)COc1cc2ncc(-c3ccnc(N[C@H]4CNCC[C@@H]4F)n3)n2nc1C1CC1` [Compound 4a, 4-(6-cyclopropyl-7-(2,2-difluoroethoxy)imidazo[1,2-b]pyridazin-3-yl)-N-((3 S,4S)-4-fluoropiperidin-3-yl)pyrimidin-2-amine] as the compound, how does the Kd (FLT3 ITD, D835V) read?
The Kd was less than 0.17 nM.

And the Kd (FLT3)?
Its Kd is less than 0.17 nM.

For `COc1cc2ncc(-c3nc(N[C@H]4CNCC[C@@H]4F)ncc3F)n2nc1C(C)(C)O` [Compound 45a, 2-(3-(5-fluoro-2-(((3S,4S)-4-fluoropiperidin-3-yl)amino)pyrimidin-4-yl)-7-methoxyimidazo[1,2-b]pyridazin-6-yl)propan-2-ol], which Kd (FLT3 ITD, D835V) is on record?
Its Kd is 0.23 nM.

And the Kd (FLT3)?
The Kd was 1.1 nM.

For `CC(C)(O)c1ccc2ncc(-c3nc(N[C@H]4CNCC[C@@H]4F)ncc3F)n2c1` [Compound 46a, 2-(3-(5-fluoro-2-(((3S,4S)-4-fluoropiperidin-3-yl)amino)pyrimidin-4-yl)imidazo[1,2-a]pyridin-6-yl)propan-2-ol], which Kd (FLT3 ITD, D835V) is on record?
Its Kd is less than 0.17 nM.

And the Kd (FLT3)?
The Kd was 1.2 nM.

With `COc1cc2ncc(-c3nc(N[C@H]4CNCC[C@@H]4F)ncc3F)n2nc1C1COC1` [Compound 92a, 5-fluoro-N-((3S,4S)-4-fluoropiperidin-3-yl)-4-(7-methoxy-6-(oxetan-3-yl)imidazo[1,2-b]pyridazin-3-yl)pyrimidin-2-amine] as the compound, how does the Kd (FLT3 ITD, D835V) read?
The Kd was less than 0.17 nM.

And the Kd (FLT3)?
The Kd was less than 0.17 nM.

How did the Kd (FLT3 ITD, D835V) turn out when `CC(C)(O)c1cn2c(-c3nc(N[C@H]4CNCC[C@@H]4F)ncc3F)cnc2cn1` [Compound 100a, 2-(3-(5-fluoro-2-(((3S,4S)-4-fluoropiperidin-3-yl)amino)pyrimidin-4-yl)imidazo[1,2-a]pyrazin-6-yl)propan-2-ol] was run?
Its Kd is 0.19 nM.

What about the Kd (FLT3) of the same compound?
Its Kd is 16 nM.

Which results are given for `COc1cc2ncc(-c3nc(N[C@H]4CNCC[C@@H]4F)ncc3F)n2nc1N1CCCS1(=O)=O` [Compound 112a, 2-(3-(5-fluoro-2-(((3S,4S)-4-fluoropiperidin-3-yl)amino)pyrimidin-4-yl)-7-methoxyimidazo[1,2-b]pyridazin-6-yl)isothiazolidine 1,1-dioxide]?
Kd (FLT3 ITD, D835V): < 0.17 nM; Kd (FLT3): < 0.17 nM

Reference: patent US20260226048A1, “MULTI-CYCLIC IRAK AND FLT3 INHIBITING COMPOUNDS AND USES THEREOF” (CHILDREN'S HOSPITAL MEDICAL CENTER, priority 2023, published 2026)
